Experimental data from PubChem BioAssay (NCI).
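Step 1: Grow cells in 96-well plates. Step 2: Expose to compound for 48 hours at 5 concentrations. Step 3: Interpolate endpoints linearly; if unreached, use highest concentration. TGI marks complete inhibition of growth.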

Key:
Test in all cases: inhibition of tumour cell growth, NCI panel, 48 h
UACC-257 melanoma = tested on: UACC-257 melanoma
KM20L2 colon = tested on: KM20L2 colon
XF 498 CNS = tested on: XF 498 CNS
M19-MEL melanoma = tested on: M19-MEL melanoma
CCRF-CEM leukemia = tested on: CCRF-CEM leukemia
DLD-1 colon = tested on: DLD-1 colon
RPMI-8226 leukemia = tested on: RPMI-8226 leukemia
CAKI-1 renal = tested on: CAKI-1 renal
OVCAR-8 ovarian = tested on: OVCAR-8 ovarian
HOP-62 NSCLC = tested on: HOP-62 NSCLC
SK-MEL-28 melanoma = tested on: SK-MEL-28 melanoma
HS 578T breast = tested on: HS 578T breast

Compound | TGI (UACC-257 melanoma) [µM] | TGI (KM20L2 colon) [µM] | TGI (XF 498 CNS) [µM] | TGI (M19-MEL melanoma) [µM] | TGI (CCRF-CEM leukemia) [µM] | TGI (DLD-1 colon) [µM] | TGI (RPMI-8226 leukemia) [µM] | TGI (CAKI-1 renal) [µM] | TGI (OVCAR-8 ovarian) [µM] | TGI (HOP-62 NSCLC) [µM] | TGI (SK-MEL-28 melanoma) [µM] | TGI (HS 578T breast) [µM]
O=C1C=C(O)C(=Cc2c(O)cc(O)cc2O)C(O)=C1 | > 100 | > 100 | > 100 | > 100 | > 100 | > 100 | > 100 | > 100 | > 100 | > 100 | – | –
N[C@H](COCc1ccccc1)c1ccccc1 | > 81.1 | 75.8 | 48.3 | 64.3 | 56.6 | > 100 | 45.2 | 61.2 | > 100 | > 74.5 | > 100 | –
NC1=NC(=O)C(CC(=O)Nc2ccc(Cl)cc2Cl)S1 (stereo unspecified) | > 100 | > 100 | > 100 | > 100 | > 100 | > 100 | > 100 | > 100 | > 100 | > 100 | > 100 | –
c1cc(-c2cn3c(n2)SCC3)ccn1 | > 100 | > 100 | > 100 | > 100 | > 100 | > 100 | > 100 | > 100 | > 100 | > 100 | > 100 | –
O=C(O)CCNS(=O)(=O)c1ccc([N+](=O)[O-])cc1 | > 100 | > 100 | > 100 | > 100 | > 100 | > 100 | > 100 | > 100 | > 100 | – | > 100 | –
N#CC1(C#N)C(c2ccccc2)C=CC12OCCCO2 (stereo unspecified) | > 100 | > 100 | > 100 | > 100 | 88.7 | 95.4 | 91.7 | 74.1 | 43 | > 100 | > 100 | –
CC1=C(CC2C(=O)N(c3ccccc3)S(=O)(=O)NC2C)C(=O)N(c2ccccc2)S(=O)(=O)N1C (stereo unspecified) | – | > 100 | > 100 | > 100 | > 100 | > 100 | > 100 | > 100 | > 100 | > 100 | > 100 | –
Oc1cc(-n2cccn2)c(O)cc1-n1cccn1 | 69.3 | > 100 | 32.7 | 51.1 | 19.6 | > 94.8 | 72.1 | 53.8 | 51.9 | > 76.1 | 64.9 | > 100
N#CCN1C(=O)c2cc([N+](=O)[O-])cc3cc([N+](=O)[O-])cc(c23)C1=O | 28.6 | 23.6 | 25 | 37.7 | 17.7 | 29.4 | > 38.3 | 96.6 | 56.4 | 41.9 | > 52.8 | –
CC(C)(C)c1cc2nc(c1)C(C(F)(F)F)(C(F)(F)F)OB(Br)OC2(C(F)(F)F)C(F)(F)F | 0.188 | 1.25 | 6.91 | 12.2 | 0.677 | 12.8 | 3.76 | 1.18 | 0.427 | 3.14 | 18.6 | –
COc1ccc(-c2[nH]c3ccccc3c2CCNS(=O)(=O)c2ccc(C)cc2)cc1 | > 10 | > 10 | > 10 | > 10 | > 10 | > 10 | > 10 | > 10 | > 10 | > 10 | > 10 | –
O=C1OC(=O)c2c1c(-c1ccccc1)nc1ccccc21 | > 100 | > 100 | > 100 | > 100 | > 100 | > 100 | > 100 | > 100 | > 100 | > 100 | > 100 | –
CCCC(S(=O)(=O)c1ccccc1)S(=O)(=O)c1ccccc1 | > 100 | > 100 | > 100 | > 100 | > 100 | > 100 | > 100 | > 100 | > 100 | > 100 | > 100 | –
